Columns and labels:
[1] = tested on: APC-WT and APC-KO MC38 cell lines; experiment: Crystal violet staining of APC-WT and APC-KO MC38 cell lines after 680C91; type: cell-based, mouse; settings: APC-KO vs APC-WT MC38, dose-dependent, 48 hr
APC-KO MC38 cells [2] = experiment: Cell death (caspase-3 assay, colony formation) with 680C91 alone and 680C91/Kyn; type: cell-based, mouse
Experimental: (§1) Normalized enrichment score (NES) and nominal P value are shown. […] The P value and R-square value are shown. […] Representative images of triplicate studies are shown. Scale bar, 100 μm. […] Dox food was applied at day 5 post-orthotopic injection to induce TDO2 knockdown in vivo (shControl, n=7, Dox, n=8, shAhR #1, #2, n=7). ***P<0.001. two-tailed t-test.
(§2) To assess the roles of TDO2-Kyn-AhR axis in cancer relevant processes, colony formation assays were performed using the APC-KO MC38 ishTDO2 cell lines and APC-KO MC38 shAhR cell lines. […] Thus, the TDO2-Kyn-Ahr axis supports APC-null cancer cell proliferation and survival and its tumorigenic potential.
(§3) Cell lysates were prepared with RIPA lysis buffer (Roche) with protease inhibitor […] Immunoblotting was performed following standard protocol. Antibodies were purchased from the indicated companies.
(§4) Colorectal cancer cell proliferation in vitro was assayed through colony formation. 1×10^3 cells were seeded in each well of 6-well plates and cultured for 5-7 days. At the end point, cells were fixed and stained with 0.5% crystal violet in 25% methanol for 1 hr. These studies were performed in triplicate.

APC deficient cell lines = experiment: Crystal violet staining after 680C91 treatment, APC deficient cell lines; type: cell-based, human; settings: 680C91 dose-dependent, 48 hr
[3] = tested on: APC intact cells including CCD-841-CoN cells; experiment: Crystal violet staining after 680C91 treatment, APC intact cells; type: cell-based, human; settings: 680C91 dose-dependent, 48 hr, normal colon epithelial cells included
Raw264.7 = experiment: Transwell migration assay of macrophages in conditioned media; type: cell-based, mouse; settings: co-treatment with CXCL5; SX-682 1 μM, 36 hr
Experimental: Two-way ANOVA analysis. […] Dox food was applied at day 5 post-orthotopic injection to induce TDO2 knockdown in vivo. n=4 per group. n.s.P>0.05, *P<0.05, […], ****P<0.0001. two-tailed t-test. […] FIGS. 12D and 12E show quantification of macrophages (F4/80+; FIG. 12D) and M2 macrophages (CD206+; FIG. 12E) in tumors shown in FIG. 12C. CyTOF data analyzed by FlowJo. Data represent mean±s.d., n=3 per group. *P<0.05, **P<0.01. two-tailed t-test. […] Recombinant CXCL5 protein (50 ng) and SX-682 (1 μM) were added to harvested condition media for 36 hr. Scale bar, 100 μm. n=3 biological replicates. Quantification is shown in lower panel. n.s. P>0.05, ***P<0.001, ****P<0.0001. two-tailed t-test. […] Clondronate liposomes or control encapsome liposomes were given intraperitoneally (100 μl) at day 2 post-orthotopic injection and three times a week. […]
Macrophages (1×10^4 for Raw264.7 and BMDM) were suspended in serum-free culture medium and seeded into 24-well Transwell inserts ([…]). […] After 24 h, the migrated macrophages were fixed and stained with crystal violet (0.05%, sigma), and then counted as cells per field of view under microscope or measured as OD590 nm (expressed as migration index) after crystal violet was dissolved.

[4] = tested on: APC-KO MC38 orthotopic tumors; experiment: Survival of C57BL/6J mice orthotopically implanted with APC-KO MC38 cells; type: in vivo, mouse; settings: 100 mg/kg twice a day by oral gavage from day 5 post-injection
Text: (§5) Induction of shTDO2 is indicated by GFP (highlighted with arrows). X63 magnification. […] Dox food was provided at day 5 after injection to induced TDO2 knockdown in vivo (n=5 per group). […] Scale bar, 100μm. […] Dox food was applied at day 5 post-orthotopic injection to induce TDO2 knockdown in vivo (ishTDO2 APC-WT MC38, n=5, ishTDO2 APC-WT+Dox MC38 and ishTDO2 APC-KO MC38, n=6, ishTDO2 APC-KO MC38+Dox, n=7). n.s.P>0.05, **P<0.01, ***P<0.001. two-tailed t-test. […] Dox food was applied at day 5 post-orthotopic injection to induce TDO2 knockdown in vivo (n=8 per group). n.s.P>0.05, **P<0.01, ***P<0.001. two-tailed t-test. FIGS. 4N and 4O show survival curves of C57BL/6J mice orthotopically implanted with APC-WT and APC-KO MC38 cell lines ([…]) treated with TDO2 inhibitor (FIG. 4N) or Epacadostat (FIG. 4O). TDO2 inhibitor and Epacadostat treatment (100 mg/kg) was initiated at day 5 post-injection twice a day by oral gavage. n.s.P>0.05, *P<0.05, ***P<0.001. Log-rank (Mantel-Cox) test. […] Scale bars, ×10 (200 μm).
(§6) The inventors synthesized the TDO2 inhibitor PF06845102/EOS200809 (“TDO2i”), which has been documented to inhibit TDO2 activity in vivo (Schramme et al., Cancer Immunol Res. 2020 January; 8(1):32-45; incorporated herein by reference in its entirety) and administrated the drug by oral gavage to mice bearing APC-WT or APC-KO MC38 orthotopic tumors. […]

[5] = tested on: APC-WT MC38 orthotopic tumors; experiment: Survival of C57BL/6J mice orthotopically implanted with APC-WT MC38 cells; type: in vivo, mouse; settings: 100 mg/kg twice a day by oral gavage from day 5 post-injection
Text: as §5, §6

BMDM [6] = experiment: RT-qPCR of M2 macrophage signature genes in BMDM; type: cell-based, mouse; settings: CXCL5 50 ng, Kyn 1 mM, 24 hr
Experimental: Scale bars, 50μm. […] Scale bars, 100 μm. […] (isTDO2 and isTDO2/shCXCL5 #2 groups, n=7, isTDO2/shCXCL5 #3, n=8). ****P<0.0001. two-tailed t-test. […] (shControl and shCXCL5 #2 groups, n=7, shCXCL5 #3, n=8). ****P<0.0001. two-tailed t-test.
(§7) RNA was isolated from cells using Trizol (Invitrogen) following the manufacturer's instructions. RNA (200-500 ng) was first treated with RNase-free DNase I using the DNA-free kit (Ambion) to remove all genomic DNA, and then reverse-transcribed into cDNA using an ABI High Capacity cDNA RT Kit (Invitrogen). The cDNA was analyzed using real-time quantitative PCR (SYBR Green, Invitrogen) with an Applied Biosystems 7900 Sequence Detection System. Each reaction was performed in triplicate. The expression of each gene was normalized by that of mouse Actin or human GAPDH.

APC-KO MC38 cells [7] = experiment: Colony formation assay of TDO2- or AhR-depleted cells with Kyn; type: cell-based, mouse; settings: Dox/Kyn co-treatment
Experimental: as §1, §2, §4

BMDM [8] = experiment: RT-qPCR analysis of Gas6 expression in BMDM; type: cell-based, mouse; settings: Kyn 1 mM, CXCL5 50 ng, Gas6 25 ng, 24 hr
Experimental: (§8) The red box indicates Axl. […] Six replicates per group. two-tailed t-test. *P<0.05. […] Epithelial cells are stained with EpCam and indicated by GFP. X63 magnification. […] Total flux measurement of at the end point. **P<0.01. two-tailed t-test. […] Total flux measurement of tumors was done at the end point. **P<0.01. two-tailed t-test.
To evaluate whether secreted factors from cancer cells might upregulate Gas6 expression in macrophages, BMDMs were incubated with conditioned media from MC38 cell lines. […] (FIG. 15H). Finally, to validate the roles of Gas6 in promoting tumor growth in vivo, CT26 cell lines and two independent Raw 264.7 shGas6 cell lines were co-injected into syngeneic Balb/CJ mice (FIG. 15I).
as §7

iKAP cell lysates = experiment: Cleaved Caspase-3 immunoblot in iKAP cells, 680C91 alone and 680C91/Kyn; type: cell-based, mouse; settings: 680C91/Kyn vs 680C91 alone
Experimental: as §1, §2, §3

[9] = tested on: APC-WT and APC-KO MC38 cells; experiment: Cell viability assay with STF-31; type: cell-based, mouse; settings: STF-31 24 hr, dose-dependent
[10] = tested on: Caco-2, DLD-1, and HCT-15 cell lines; experiment: Immunoblot for TDO2 and β-catenin in CRC cell lines treated with XAV-939; type: cell-based, human; settings: XAV-939 in a dose-dependent manner; WNT activity indicated by reduced level of β-catenin
Experimental: The motif sequence is conserved in human and mouse genes. […] GAPDH as a negative control and MYC and AXIN2 as positive controls. […] FIGS. 3K-3M show immunoblot for TDO2 and β-catenin in DLD-1 cells (FIG. 3K), Caco-2 cells (FIG. 3L), and HCT-15 cells (FIG. 3M) treated with XAV-939 in a dose-dependent manner.
Thus, APC loss induced activation of the WNT-betacatenin-TCF4 pathway resulting in TCF4-mediated upregulation of TDO2 gene transcription.
as §3

[11] = tested on: LS180 and HT-29 cell lines; experiment: Colony formation assay with Gas6 and R428; type: cell-based, human; settings: Gas6 25 ng, 36 hr
Text: as §8
(§9) Gas6 is a ligand of Axl and is secreted mainly by tumor-associated macrophages in the TME (Loges et al., 2010), raising the possibility that macrophage-derived Gas6 might activate Axl to support the growth of APC-deficient cancer cells.
as §4

Axl = biological target: T1, Axl (Mus musculus, UniProt Q00993); experiment: Immunoblots for Axl and phospho-Axl; type: cell-based; settings: APC-WT and APC-KO MC38 cells; R428 0.2 μM 24 h; rmGAS6 24 h
T1 construct: immunoblots for Axl and phospho-Axl in APC-WT and APC-KO MC38 cells after R428 treatment (0.2 μM, 24 h); endogenous in cells; host or cells: MC38 mouse colorectal cancer cells, APC-WT and isogenic APC-KO
T1 sequence (Q00993 19-888): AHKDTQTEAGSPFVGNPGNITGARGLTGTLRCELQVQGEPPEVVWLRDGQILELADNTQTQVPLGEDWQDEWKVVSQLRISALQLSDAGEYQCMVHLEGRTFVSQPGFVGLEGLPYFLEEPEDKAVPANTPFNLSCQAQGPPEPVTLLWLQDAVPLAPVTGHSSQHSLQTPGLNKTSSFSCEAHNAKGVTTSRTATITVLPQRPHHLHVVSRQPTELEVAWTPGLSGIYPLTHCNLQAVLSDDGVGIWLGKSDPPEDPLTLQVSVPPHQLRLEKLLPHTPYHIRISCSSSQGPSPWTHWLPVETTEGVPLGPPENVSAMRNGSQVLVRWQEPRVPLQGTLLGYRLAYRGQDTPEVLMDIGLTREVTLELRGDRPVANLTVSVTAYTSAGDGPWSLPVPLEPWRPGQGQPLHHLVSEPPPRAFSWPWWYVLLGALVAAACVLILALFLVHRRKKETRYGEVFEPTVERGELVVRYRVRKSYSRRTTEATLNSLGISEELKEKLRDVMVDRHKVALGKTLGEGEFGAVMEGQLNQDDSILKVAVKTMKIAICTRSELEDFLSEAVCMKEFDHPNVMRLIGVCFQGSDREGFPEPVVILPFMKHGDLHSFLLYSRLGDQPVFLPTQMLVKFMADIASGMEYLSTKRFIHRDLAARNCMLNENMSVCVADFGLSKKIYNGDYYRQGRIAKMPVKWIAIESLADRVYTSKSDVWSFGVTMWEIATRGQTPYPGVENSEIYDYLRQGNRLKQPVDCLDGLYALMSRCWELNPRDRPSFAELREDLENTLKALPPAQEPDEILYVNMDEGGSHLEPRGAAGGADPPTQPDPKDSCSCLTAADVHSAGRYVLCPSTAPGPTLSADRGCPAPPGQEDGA
Text: as §8, §9, §3

## Fc1ccc2c(/C=C/c3cccnc3)c[nH]c2c1 [680C91]
[1]
  sensitivity of APC depleted cells to TDO2 inhibition: higher sensitivity to TDO2 inhibition
APC-KO MC38 cells [2]; 680C91 alone
  cell death indicated by caspase-3 assay: increased cell death
APC deficient cell lines
  growth and survival: impaired the growth and survival
[3]
  growth and survival: but not APC intact cells

## O=C(Nc1ccc(F)cc1)c1cnc(SCc2cc(OC(F)(F)F)ccc2B(O)O)nc1 [CXCR1/2 inhibitor]
Raw264.7
  effect on CXCL5 rescue of macrophage recruitment: abrogated the rescue by CXCL5 supplementation

## NS(=O)(=O)NCCNc1nonc1C(=NO)Nc1ccc(F)c(Br)c1 [Epacadostat]
[4]
  survival of mice bearing APC-KO MC38 tumors: did not exhibit anti-tumor effects
[5]
  survival of mice bearing APC-WT MC38 tumors: did not exhibit anti-tumor effects

## Nc1ccccc1C(=O)CC(N)C(=O)O (centres unmarked) [Kyn, kynurenine]
APC-KO MC38 cells [2]; 680C91/Kyn co-treatment
  effect of Kyn on 680C91-induced cell death: rescued by Kyn supplementation
BMDM [6]
  M2 macrophage markers: M2 macrophage markers increased
APC-KO MC38 cells [7]
  effect of Kyn on reduced colony formation after TDO2 and AhR depletion: rescued by Kyn treatment
BMDM [8]
  Gas6 expression: increased Gas6 expression
iKAP cell lysates
  cell death in iKAP model system: decreased cell death

## CC(C)(C)c1ccc(S(=O)(=O)NCc2ccc(C(=O)Nc3cccnc3)cc2)cc1 [STF-31]
[9]
  sensitivity of APC-KO vs APC-WT MC38 cells: higher sensitivity

## Oc1nc(-c2ccc(C(F)(F)F)cc2)nc2c1CSCC2 [XAV-939]
[10]
  TDO2 expression: TDO2 expression was decreased

## rmGas6: mouse recombinant Gas6, ligand of Axl
[11]
  cancer cell growth in vitro: promoted cancer cell growth
BMDM [8]
  Gas6 expression: increased Gas6 expression
Axl
  Axl phosphorylation: activated Axl
